This is an account of results in patent US20240327429A1, “[1,3]Thiazolo[4,5-d]-pyrimidon-7-ones as inhibitors of NOX4” (Boehringer Ingelheim International GmbH, priority 2023, published 2024).

The assay addresses T1, human NOX3 (hNOX3) (Homo sapiens, UniProt Q9HBY0).
T1 construct: pLV-CMV-hNOX3-puro (NM_015718.3); host or cells: HEK293 (CLS GmbH), lentiviral transduction
T1 sequence (Q9HBY0 1-568): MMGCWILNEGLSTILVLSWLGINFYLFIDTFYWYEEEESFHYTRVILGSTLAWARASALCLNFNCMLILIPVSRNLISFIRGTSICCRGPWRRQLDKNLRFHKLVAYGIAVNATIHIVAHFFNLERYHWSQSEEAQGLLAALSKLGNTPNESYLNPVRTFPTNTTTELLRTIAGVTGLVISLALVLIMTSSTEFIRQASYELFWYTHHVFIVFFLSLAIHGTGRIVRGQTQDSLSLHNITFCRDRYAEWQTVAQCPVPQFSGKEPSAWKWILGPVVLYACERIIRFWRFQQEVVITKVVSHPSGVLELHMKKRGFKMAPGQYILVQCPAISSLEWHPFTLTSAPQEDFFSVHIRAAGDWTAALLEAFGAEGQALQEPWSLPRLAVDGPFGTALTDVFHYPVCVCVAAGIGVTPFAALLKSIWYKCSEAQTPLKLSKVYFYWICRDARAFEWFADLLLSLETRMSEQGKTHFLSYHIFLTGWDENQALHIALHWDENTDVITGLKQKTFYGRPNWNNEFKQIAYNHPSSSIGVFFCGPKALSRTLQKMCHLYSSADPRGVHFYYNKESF
T1 sequence (P13498 2-195 partner limits assumed): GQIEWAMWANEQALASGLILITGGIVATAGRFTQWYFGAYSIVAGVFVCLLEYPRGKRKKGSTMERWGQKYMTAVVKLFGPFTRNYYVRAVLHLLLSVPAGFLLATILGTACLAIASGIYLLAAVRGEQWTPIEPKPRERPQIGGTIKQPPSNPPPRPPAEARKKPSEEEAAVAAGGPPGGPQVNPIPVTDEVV
The experiment in a line: NOX3 inhibition assay (L-012), HEK293 cells stably overexpressing human NOX3. It is filed as cell-based. The settings on record: HEK293-hNOX3, PMA stimulated. An excerpt:
Plasmids are Purchased from Vectorbuilder. • for HEK-hNOX1 all necessary subunits are cloned accordingly: • pLV-CMV-hNOX1-puro (NM_007052.5) • pLV-CMV-hNOXO1-blas (NM_172168.3) • pLV-CMV-hp22phox-hygro (NM_000101.4) • pLV-CMV-hNOXA1-neo (NM_006647.2) • for HEK-hNOX3 • pLV-CMV-hNOX3-puro (NM_015718.3)
3rd generation lentiviral particles are produced in HEK293 suspension cells by transient transfection of three helper and expression plasmids. Crucial lentivirus supernatants are harvested, clarified by filtration and concentrated by precipitation. Lentivirus titers are determined in transducing units in (TU/mL) by transduction of HT1080 cells and colony forming assay. Parental HEK293 cells, purchased from CLS GmbH, are transduced with replication-incompetent 3rd generation lentiviral particles (MOI 2) and expanded for at least 2 weeks before cryopreservation of tested lots. During cultivation, medium is changed three times per week and cells are sub-cultured at least once per week. Selection antibiotics are added according to the plasmids (1 μg/ml puromycin, 1.5 μg/ml blasticidin, 200 μg/ml G418 and 100 μg/ml hygromycin).
Evaluation of the NOX4 inhibitors on NOX3 activity is assessed in HEK293 cells stably overexpressing human NOX3 (hNOX3).
Cells are seeded in 384 well plates for 2 days. […] Cells are then stimulated with PMA at 0.1 μM to induce NOX3-dependent ROS production. […] Luminescence is measured with an PHERAstar multimode reader.

The IC50 is the concentration that inhibits the measured activity by half. A low value points to inhibition by little substance. As to `O=c1c2scnc2nc(SCc2ccc(C(F)(F)F)cc2)n1-c1ccc(O)nn1` [Example 66], the 50% inhibitory concentration (IC50) was more than 100 µM. `Cc1cc(Cl)ccc1CSc1nc2ncsc2c(=O)n1-c1ccc(O)nc1` [Example 23] yielded a concentration for half-maximal inhibition (IC50) of more than 100 µM. For `O=c1c2scnc2nc(SCc2ccc(F)cc2)n1-c1ccc(O)nc1` [Example 30], the IC50 came to 98.1 µM. Consider `O=c1c2scnc2nc(SCc2c(F)cc(F)cc2F)n1-c1cnc(O)cn1` [Example 69, 6-(5-Hydroxypyrazin-2-yl)-5-((2,4,6-trifluorobenzyl)thio)thiazolo[4,5-d]pyrimidin-7(6H)-one], for which the IC50 came to 77.5 µM. On to `O=c1c2scnc2nc(SCc2ccc(Cl)cc2)n1-c1cc(F)c(O)c(F)c1` [Example 5], for which the 50% inhibitory concentration (IC50) is more than 100 µM. The value for `O=c1c2scnc2nc(SCc2ccc(C(F)(F)F)cc2)n1-c1cnc(O)nc1` [Example 60] was more than 100 µM; that for `Cc1cc(F)cc(C)c1CSc1nc2ncsc2c(=O)n1-c1cnc(O)c(F)c1` [Example 43] was more than 100 µM.

As to `O=c1c2scnc2nc(SCc2ccc(C(F)(F)F)cc2Cl)n1-c1cnc(O)c(F)c1` [Example 46], the IC50 was 56.4 µM. Turning to `Cc1cc(F)ccc1CSc1nc2ncsc2c(=O)n1-c1cc(F)c(O)c(F)c1` [Example 9], the 50% inhibitory concentration (IC50) was found to be 3.7 µM. In turn, `O=c1c2scnc2nc(SCc2c(F)cc(F)cc2F)n1-c1cnc(O)nc1` [Example 59] returned a half-maximal inhibitory concentration (IC50) of more than 100 µM. Consider `O=c1c2scnc2nc(SCc2c(F)cc(F)cc2F)n1-c1cnc(O)cc1F` [Example 49, 6-(4-Fluoro-6-hydroxypyridin-3-yl)-5-((2,4,6-trifluorobenzyl)thio)thiazolo[4,5-d]pyrimidin-7(6H)-one], for which the IC50 is more than 100 µM.

Consider `O=c1c2scnc2nc(SCc2ccc(Cl)cc2F)n1-c1cnc(O)c(F)c1` [Example 35], for which it took 39.9 µM to reach half-maximal inhibition (IC50). In turn, `O=c1c2scnc2nc(SCc2c(F)cc(F)cc2F)n1-c1ccc(O)c(F)c1F` [Example 12] registered a half-maximal inhibitory concentration (IC50) of 7.6 µM.

The compound `Cc1cc(Cl)ccc1CSc1nc2ncsc2c(=O)n1-c1cc(F)c(O)c(F)c1` [Example 3] gave a concentration for half-maximal inhibition (IC50) of more than 100 µM. The compound `O=c1c2scnc2nc(SCc2c(F)cc(F)cc2F)n1-c1cnc(O)c(Cl)c1` [Example 48, 6-(5-Chloro-6-hydroxypyridin-3-yl)-5-((2,4,6-trifluorobenzyl)thio)thiazolo[4,5-d]pyri-midin-7(6H)-one] showed a concentration for half-maximal inhibition (IC50) of more than 100 µM.

`O=c1c2scnc2nc(SCc2c(F)cc(F)cc2F)n1-c1cnc(O)c(F)c1` [Example 31, 6-(5-Fluoro-6-hydroxypyridin-3-yl)-5-((2,4,6-trifluorobenzyl)thio)thiazolo[4,5-d]-pyrimidin-7(6H)-one] displayed an IC50 of more than 100 µM. `Cc1cc(F)ccc1CSc1nc2ncsc2c(=O)n1-c1cnc(O)nc1` [Example 58]: the concentration for half-maximal inhibition (IC50) was more than 100 µM.

On to `O=c1c2scnc2nc(SCc2ccc(F)cc2F)n1-c1cnc(O)c(F)c1` [Example 38], for which the IC50 was more than 100 µM. Compound `Cc1c(F)cccc1CSc1nc2ncsc2c(=O)n1-c1cnc(O)c(F)c1` [Example 40] showed an IC50 of 39.2 µM.

`Cc1cc(F)ccc1CSc1nc2ncsc2c(=O)n1-c1cnc(O)c(F)c1` [Example 36] came in with a half-maximal inhibitory concentration (IC50) of 87.9 µM.
